Experiments:
CYP1A2 = biological target: T1, CYP1A2 (Homo sapiens, UniProt P05177); assay: CYP inhibition assay, human liver microsomes, substrate tacrine; assay type: in vitro ADME; conditions: human liver microsomes, 10 min incubation, LC-MS/MS; read-out: CYP Inhibition Activity (IC50/nM) CYP1A2
T1 construct: from tissue; host or cells: human liver microsomes
T1 sequence (P05177 1-516): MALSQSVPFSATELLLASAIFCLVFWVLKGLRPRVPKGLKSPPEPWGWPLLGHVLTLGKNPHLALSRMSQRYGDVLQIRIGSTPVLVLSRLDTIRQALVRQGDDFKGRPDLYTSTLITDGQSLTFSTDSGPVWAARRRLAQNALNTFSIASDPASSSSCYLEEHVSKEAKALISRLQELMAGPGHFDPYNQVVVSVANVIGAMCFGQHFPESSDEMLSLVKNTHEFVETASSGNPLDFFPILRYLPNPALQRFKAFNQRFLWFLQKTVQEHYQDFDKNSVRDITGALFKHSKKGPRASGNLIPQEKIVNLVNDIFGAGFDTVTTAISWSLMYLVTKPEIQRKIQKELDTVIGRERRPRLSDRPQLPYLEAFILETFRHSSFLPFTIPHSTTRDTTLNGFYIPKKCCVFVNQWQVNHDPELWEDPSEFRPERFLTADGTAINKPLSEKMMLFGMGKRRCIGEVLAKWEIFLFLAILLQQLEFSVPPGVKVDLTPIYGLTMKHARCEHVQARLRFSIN
In short: (§1)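 Metabolite formation measured by LC-MS/MS after quench with cold acetonitrile, yielding % inhibition and IC50. Reactions ran 10 min at 37° C after NADPH addition, following 20 min pre-incubation of substrate pool and inhibitor with human liver microsomes.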

CYP3A4 = biological target: T2, CYP3A4 (Homo sapiens, UniProt P08684); assay: CYP inhibition assay, human liver microsomes, substrate midazolam; assay type: in vitro ADME; conditions: human liver microsomes, 10 min incubation, LC-MS/MS; read-out: CYP Inhibition Activity (IC50/nM) CYP3A4
T2 construct: from tissue; host or cells: human liver microsomes
T2 sequence (P08684 whole entry): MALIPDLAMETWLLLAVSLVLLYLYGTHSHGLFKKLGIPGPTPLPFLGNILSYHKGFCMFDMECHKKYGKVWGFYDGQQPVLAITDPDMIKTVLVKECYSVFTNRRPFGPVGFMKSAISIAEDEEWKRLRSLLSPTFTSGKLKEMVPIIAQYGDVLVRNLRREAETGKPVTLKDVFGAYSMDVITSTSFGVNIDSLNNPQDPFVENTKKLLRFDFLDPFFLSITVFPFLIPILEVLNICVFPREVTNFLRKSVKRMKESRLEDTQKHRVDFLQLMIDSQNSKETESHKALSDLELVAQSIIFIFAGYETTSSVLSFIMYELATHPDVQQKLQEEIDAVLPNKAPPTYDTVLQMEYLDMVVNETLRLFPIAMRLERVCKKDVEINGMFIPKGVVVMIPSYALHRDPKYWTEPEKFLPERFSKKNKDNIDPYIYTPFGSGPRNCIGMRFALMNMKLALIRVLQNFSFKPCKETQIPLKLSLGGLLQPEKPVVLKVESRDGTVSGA
In short: as §1

CYP2C9 = biological target: T3, CYP2C9 (Homo sapiens, UniProt P11712); assay: CYP inhibition assay, human liver microsomes, substrate diclofenac; assay type: in vitro ADME; conditions: human liver microsomes, 10 min incubation, LC-MS/MS; read-out: CYP Inhibition Activity (IC50/nM) CYP2C9
T3 construct: from tissue; host or cells: human liver microsomes
T3 sequence (P11712 whole entry): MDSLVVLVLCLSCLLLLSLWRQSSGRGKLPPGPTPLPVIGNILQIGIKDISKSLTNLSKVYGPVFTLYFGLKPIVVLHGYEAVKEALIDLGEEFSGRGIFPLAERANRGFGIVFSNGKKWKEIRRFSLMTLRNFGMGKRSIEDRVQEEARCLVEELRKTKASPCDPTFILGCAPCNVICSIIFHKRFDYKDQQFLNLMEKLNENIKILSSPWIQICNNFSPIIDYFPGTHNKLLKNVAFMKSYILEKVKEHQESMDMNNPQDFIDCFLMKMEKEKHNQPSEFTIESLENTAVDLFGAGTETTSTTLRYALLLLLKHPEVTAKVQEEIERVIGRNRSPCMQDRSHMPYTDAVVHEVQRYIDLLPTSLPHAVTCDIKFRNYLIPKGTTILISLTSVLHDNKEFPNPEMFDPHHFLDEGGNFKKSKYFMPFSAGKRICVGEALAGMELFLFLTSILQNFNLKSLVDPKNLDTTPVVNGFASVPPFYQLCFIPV
In short: as §1

CYP2D6 = biological target: T4, CYP2D6 (Homo sapiens, UniProt P10635); assay: biochemical; assay type: in vitro ADME
T4 construct: from tissue; host or cells: human liver microsomes
T4 sequence (P10635 whole entry): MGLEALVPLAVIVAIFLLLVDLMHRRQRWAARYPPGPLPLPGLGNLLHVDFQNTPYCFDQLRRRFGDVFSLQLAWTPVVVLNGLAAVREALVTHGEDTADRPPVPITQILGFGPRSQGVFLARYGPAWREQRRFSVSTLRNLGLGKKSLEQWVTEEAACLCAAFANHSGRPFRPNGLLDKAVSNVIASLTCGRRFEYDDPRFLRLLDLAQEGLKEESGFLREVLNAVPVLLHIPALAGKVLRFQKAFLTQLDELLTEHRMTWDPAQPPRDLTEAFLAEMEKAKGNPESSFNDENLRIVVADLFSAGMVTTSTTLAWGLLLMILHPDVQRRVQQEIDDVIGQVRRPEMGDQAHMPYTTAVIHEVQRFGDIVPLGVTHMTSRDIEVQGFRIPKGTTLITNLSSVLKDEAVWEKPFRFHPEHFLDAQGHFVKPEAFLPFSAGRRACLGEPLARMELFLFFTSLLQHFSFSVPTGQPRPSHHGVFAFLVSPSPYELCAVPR
In short: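 Read-out is LC-MS/MS of supernatant, giving % inhibition and IC50 relative to a no-inhibitor ACN/DMSO control. Compound and substrate pool were pre-incubated 20 min at 37° C with human liver microsomes (working stock 0.253 mg/mL) before a 10 min NADPH-driven reaction, quenched with cold ACN.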

CYP2C19 = biological target: T5, CYP2C19 (Homo sapiens, UniProt P33261); assay: CYP inhibition assay, human liver microsomes, substrate S-mephenytoin; assay type: in vitro ADME; conditions: human liver microsomes, 10 min incubation, LC-MS/MS; read-out: CYP Inhibition Activity (IC50/nM) CYP2C19
T5 construct: from tissue; host or cells: human liver microsomes
T5 sequence (P33261 whole entry): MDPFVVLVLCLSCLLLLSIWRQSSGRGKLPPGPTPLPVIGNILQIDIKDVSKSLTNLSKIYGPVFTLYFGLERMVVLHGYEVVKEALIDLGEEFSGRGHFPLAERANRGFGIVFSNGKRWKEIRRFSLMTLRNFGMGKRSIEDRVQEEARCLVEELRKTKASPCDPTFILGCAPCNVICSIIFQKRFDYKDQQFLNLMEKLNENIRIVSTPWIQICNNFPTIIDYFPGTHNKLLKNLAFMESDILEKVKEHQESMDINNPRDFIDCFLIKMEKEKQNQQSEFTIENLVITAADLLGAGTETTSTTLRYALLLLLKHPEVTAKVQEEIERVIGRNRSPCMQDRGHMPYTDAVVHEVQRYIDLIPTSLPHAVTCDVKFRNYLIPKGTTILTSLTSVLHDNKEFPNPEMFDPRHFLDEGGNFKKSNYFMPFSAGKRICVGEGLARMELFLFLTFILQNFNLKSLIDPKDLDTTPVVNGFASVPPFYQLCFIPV
In short: as §1

[1] = test system: laser-induced choroidal neovascularisation (CNV) lesions; assay: In vivo angiogenesis assay: laser-induced choroidal neovascularisation (CNV); set-up: species or system C57/B6 mice; conditions: laser-induced mouse model of CNV; topical eye drops twice daily, 2 mg/mL, 10 μl; one week; FIG. 1(a)
Method: In Vivo Angiogenesis Assay: Laser-Induced Choroidal Neovascularisation (CNV) Protocol
6-8 week-old female C57/B6 mice were anesthetized with an intraperitoneal injection of a mixture of 50 mg/kg ketamine and 0.5 mg/kg medetomidine. The pupils were immediately dilated by topical (eyedrop) application with a dilator such as 5% phenylephrine hydrochloride and 1% tropicamide. Four photocoagulation lesions were delivered with a green Merilas 532α laser (450 mW, 130 ms) between the “large” retinal vessels in clear space with no vessels in a peripapillary distribution at a distance of 1-2 disc-diameters in each eye. Only clean laser lesions with a subretinal bubble at the time of treatment were included in the study. Immediately following laser photocoagulation the animals were given topical eye drops of candidate compounds twice daily (2 mg/mL, 10 μl, eyes held for 30 seconds to prevent animal wiping drop away).
After one week, mice were anesthetized with an intraperitoneal injection of a mixture of 50 mg/kg ketamine and 0.5 mg/kg medetomidine. The pupils were immediately dilated by topical (eyedrop) application with a dilator such as 5% phenylephrine hydrochloride and 1% tropicamide. Mice were administered an intraperitoneal injection of sodium fluorescein (10%). […]
The optical density of each well was measured immediately, using a microplate reader set to 450 nm.

SRPK1 = SRPK1 (Homo sapiens, UniProt Q96SB4); assay: In vitro SRPK1 assay (Kinase-Glo); assay type: biochemical
Sequence of SRPK1 (Q96SB4 whole entry, species assumed): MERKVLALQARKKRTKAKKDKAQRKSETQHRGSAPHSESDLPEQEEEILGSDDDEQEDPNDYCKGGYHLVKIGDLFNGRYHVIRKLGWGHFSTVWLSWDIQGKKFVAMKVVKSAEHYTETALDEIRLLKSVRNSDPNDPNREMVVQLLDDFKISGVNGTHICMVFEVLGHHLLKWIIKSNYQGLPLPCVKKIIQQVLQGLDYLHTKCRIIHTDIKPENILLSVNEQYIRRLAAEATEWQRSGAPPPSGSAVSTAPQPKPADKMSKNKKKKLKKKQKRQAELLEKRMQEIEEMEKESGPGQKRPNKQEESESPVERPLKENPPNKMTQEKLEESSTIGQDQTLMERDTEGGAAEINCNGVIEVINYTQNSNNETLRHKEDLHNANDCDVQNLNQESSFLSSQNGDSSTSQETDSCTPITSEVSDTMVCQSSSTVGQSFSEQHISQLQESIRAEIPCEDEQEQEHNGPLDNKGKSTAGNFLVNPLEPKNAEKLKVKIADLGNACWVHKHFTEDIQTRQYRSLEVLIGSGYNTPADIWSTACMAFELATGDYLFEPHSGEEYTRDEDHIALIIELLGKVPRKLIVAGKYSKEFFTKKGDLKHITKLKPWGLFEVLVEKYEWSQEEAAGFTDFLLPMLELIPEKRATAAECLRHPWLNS

IC50 (CYP1A2) [nM] | IC50 (CYP3A4) [nM] | IC50 (CYP2C9) [nM] | IC50 (CYP2D6) [µM] | IC50 (CYP2C19) [nM] | IC50 (SRPK1) [nM] | Structure (SMILES) | anti-angiogenic activity on lesion size [1]
13900 | 2660 | 6980 | 23.2 | 11800 | 0.3 | CC1(O)CCN(c2ccc(Cl)cc2NC(=O)c2ccc(C3CCOCC3)o2)CC1 [Example 12] | improved anti-angiogenic activity on lesion size and the same efficacy as reference compounds
> 30000 | 5900 | 800 | > 30 | 14300 | 27 | Cc1ccc(N2CCC(C)(C(=O)N(C)C)CC2)c(NC(=O)c2ccc(C3CCOCC3)o2)c1 [Example 87, N,N,4-trimethyl-1-(4-methyl-2-(5-(tetrahydro-2H-pyran-4-yl)furan-2-carboxamido)phenyl)piperidine-4-carboxamide] | 
26700 | 27300 | 5690 | 10.5 | 9550 | 16 | CC1(O)CCN(c2ccc(OC(F)(F)F)cc2NC(=O)c2ccc(C3CCOCC3)o2)CC1 [Example 16, N-(2-(4-hydroxy-4-methylpiperidin-1-yl)-5-(trifluoromethoxy)phenyl)-5-(tetrahydro-2H-pyran-4-yl)furan-2-carboxamide] | 
2660 | 2610 | 810 | 0.38 | 370 | 3 | CC1(O)CCCN(c2ccc(Cl)cc2NC(=O)c2ccc(C3CCOCC3)o2)CC1 (racemic) [Example 41, N-(5-chloro-2-(4-hydroxy-4-methylazepan-1-yl)phenyl)-5-(tetrahydro-2H-pyran-4-yl)furan-2-carboxamide] | 
> 30000 | > 30000 | 14000 | > 30 | > 30000 | 9.8 | CC1(C)CCN(c2ccc(Cl)cc2NC(=O)c2ccc(C3CCOCC3)o2)CC1 [Example 65, N-(5-chloro-2-(4,4-dimethylpiperidin-1-yl)phenyl)-5-(tetrahydro-2H-pyran-4-yl)furan-2-carboxamide] | 
> 30000 | 4400 | 1800 | 4.7 | 2200 | 11 | Cc1ccc(N2CCC(O)(CC3CC3)CC2)c(NC(=O)c2ccc(C3CCOCC3)o2)c1 [Example 70, N-(2-(4-(cyclopropylmethyl)-4-hydroxypiperidin-1-yl)-5-methylphenyl)-5-(tetrahydro-2H-pyran-4-yl)furan-2-carboxamide] | 
> 30000 | 23200 | > 30000 | > 30 | > 30000 | 204 | Cc1ccc(N2CCC(C)(O)C2)c(NC(=O)c2ccc(C3CCOCC3)o2)c1 (racemic) [Example 58, N-(2-(3-hydroxy-3-methylpyrrolidin-1-yl)-5-methylphenyl)-5-(tetrahydro-2H-pyran-4-yl)-furan-2-carboxamide] | 

Reference: patent US11420969B2 (Exonate Limited, priority 2017, dated 2022)
